Earlier results in paper PMC3294027 (Methods (San Diego, Calif.), 2011).
Read-outs that look alike come from different tables or passages of the source.

What was measured:
[1] = tested on: antibody 2D12.5; conditions: for Half-life / koff: TBS pH 7.4, Avg(SD); for Calc kon: calculated as koff/KD
[2] = tested on: antibody 2D12.5; conditions: 0.1 M sodium phosphate, pH 7.0, SD in parentheses

Question: Which Half-life ([1]; 30°C) does the source give for “yttrium S-2-(4-aminobenzyl)-1, 4, 7, 10-tetraazacyclododecanetetraacetate [ABD(Y)]” here?
Answer: 2.68 ± 0.217 min

Question: And the koff ([1]; 30°C)?
Answer: 4.0(±0.3) x10^−3 s−1

Question: What about the Calc kon ([1]; 30°C) of the same substance?
Answer: 1.3e+06 M⁻¹ s⁻¹

Question: What about the Half-life ([1]; 37°C) of the same substance?
Answer: 1.62 ± 0.15 min

Question: What about the koff ([1]; 37°C) of the same substance?
Answer: 7.0(±0.7) ×10^−3 s−1

Question: And the Calc kon ([1]; 37°C)?
Answer: 3.5e+06 M⁻¹ s⁻¹

Question: What about the KA ([2]; 30 °C) of the same substance?
Answer: 3.3(±2.1) ×10^8 M^−1

Question: What about the Kd ([2]; 30 °C) of the same substance?
Answer: 0.0031 µM

Question: What about the ΔG ([2]; 30 °C) of the same substance?
Answer: −11.7(±0.4) kcal/mol

Question: And the ΔH ([2]; 30 °C)?
Answer: −18.2(±0.5) kcal/mol

Question: And the ΔS ([2]; 30 °C)?
Answer: −21.5(±2.9) cal/mol-K

Question: What about the KA ([2]; 37 °C) of the same substance?
Answer: 5.2(±0.9) ×10^8 M^−1

Question: What about the Kd ([2]; 37 °C) of the same substance?
Answer: 0.002 µM

Question: And the ΔG ([2]; 37 °C)?
Answer: −12.4(±0.2) kcal/mol

Question: And the ΔH ([2]; 37 °C)?
Answer: −20.1(±1.2) kcal/mol

Question: What about the ΔS ([2]; 37 °C) of the same substance?
Answer: −24.9(±4.1) cal/mol-K

Question: With “cobalt(II) S-2-(4-aminobenzyl)-1, 4, 7, 10-tetraazacyclododecanetetraacetate [ABD(Co)]” as the substance, how does the KA ([2]; 30 °C) read?
Answer: 8.2(±0.9) ×10^5 M^−1

Question: And the Kd ([2]; 30 °C)?
Answer: 1.2 µM

Question: And the ΔG ([2]; 30 °C)?
Answer: −8.2(±0.1) kcal/mol

Question: And the ΔH ([2]; 30 °C)?
Answer: −12.2(±0.4) kcal/mol

Question: And the ΔS ([2]; 30 °C)?
Answer: −13.2(±1.3) cal/mol-K

Question: And the KA ([2]; 37 °C)?
Answer: 7.1(±0.4) ×10^5 M^−1

Question: And the Kd ([2]; 37 °C)?
Answer: 1.4 µM

Question: And the ΔG ([2]; 37 °C)?
Answer: −8.3(±0.1) kcal/mol

Question: What about the ΔH ([2]; 37 °C) of the same substance?
Answer: −12.4(±4.8) kcal/mol

Question: What about the ΔS ([2]; 37 °C) of the same substance?
Answer: −13.3(±4.8) cal/mol-K
